In one test the test system is MDA-MB-231. Briefly: Antiproliferative activity against human MDA-MB-231 cells after 48 hrs by MTT assay. Type of test: functional, cell-based. Particulars: MDA-MB-231, 48 h.
The subject of another test is SK-N-SH. Briefly: Antiproliferative activity against human SK-N-SH cells after 48 hrs by MTT assay. It counts as functional, cell-based.
For another test, the system named is A549. Nature of the test: Antiproliferative activity against human A549 cells after 48 hrs by MTT assay. Type of test: functional, cell-based. Particulars: A549, 48 h.
In the next test the test system is MRC5. Nature of the test: Antiproliferative activity against human MRC5 cells after 48 hrs by MTT assay. It counts as cell-based. Particulars: MRC5, 48 h.

With `CC(=O)C1=C(C)OC(C)(C)[C@H]2COc3ccc4c(=O)c(C)c(C)oc4c3[C@@H]12`, the IC50 with MDA-MB-231 was greater than 100 µM; in the test on SK-N-SH it was 10.7 µM; in the test on A549, greater than 100 µM; with MRC5, greater than 100 µM.

For the compound `Cc1oc2c3c(ccc2c(=O)c1C)OC[C@H]1[C@@H]3C2=C(CC(C)(C)CC2=O)OC1(C)C`, the IC50 with MDA-MB-231, with SK-N-SH, in the test with A549 and in the test with MRC5 was greater than 100 µM in each case.

For `Cc1nn(-c2ccccc2)c2c1[C@@H]1c3c(ccc4c(=O)c(C)c(C)oc34)OC[C@@H]1C(C)(C)O2`, the IC50 was greater than 100 µM in the test on MDA-MB-231, 10.6 µM with SK-N-SH, greater than 100 µM in the test on A549 and greater than 100 µM in the test with MRC5.

`Cc1oc2c3c(ccc2c(=O)c1C)OC[C@H]1[C@@H]3c2c(n(C)c(=O)n(C)c2=O)OC1(C)C`: the IC50 in the test on MDA-MB-231 is greater than 100 µM; in the test with SK-N-SH, 1.06 µM; in the test with A549 it was 0.1 µM; in the test on MRC5 it was greater than 100 µM.

For `Cc1nn(-c2ccccc2)c2c1[C@@H]1c3c(ccc4c(=O)c(-c5ccccc5)c(C)oc34)OC[C@@H]1C(C)(C)O2`, the IC50 in the test on MDA-MB-231, in the test with SK-N-SH, in the test on A549 and in the test on MRC5 was greater than 100 µM in each case.

As to `Cc1coc2c3c(ccc2c1=O)OC[C@H]1[C@@H]3CC(=O)OC1(C)C`, the concentration for half-maximal inhibition (IC50) in the test on MDA-MB-231 is greater than 100 µM; with SK-N-SH, greater than 100 µM; in the test on A549, 11.2 µM; in the test with MRC5, greater than 100 µM.

As to `Cc1coc2c3c(ccc2c1=O)OC[C@H]1[C@@H]3C2=C(CCCC2=O)OC1(C)C`, the IC50 in the test on MDA-MB-231, with SK-N-SH, in the test on A549 and in the test on MRC5 was greater than 100 µM throughout.

For the compound `Cc1oc2c3c(ccc2c(=O)c1C)OC[C@H]1[C@@H]3C2=C(CCCC2=O)OC1(C)C`, the IC50 in the test with MDA-MB-231, in the test with SK-N-SH, with A549 and in the test on MRC5 was greater than 100 µM each time.

As to `Cc1oc2c3c(ccc2c(=O)c1C)OC[C@H]1[C@@H]3CC(=O)OC1(C)C`, the IC50 in the test with MDA-MB-231 is greater than 100 µM; in the test on SK-N-SH, greater than 100 µM; in the test with A549 it was 0.09 µM; in the test with MRC5 it was 0.6 µM.

As for `Cc1coc2c3c(ccc2c1=O)OC[C@H]1[C@@H]3C2=C(CC(C)(C)CC2=O)OC1(C)C`, the IC50 with MDA-MB-231, with SK-N-SH, in the test with A549 and in the test on MRC5 was greater than 100 µM throughout.

Turning to `CCOC(=O)C1=C(C)OC(C)(C)[C@H]2COc3ccc4c(=O)c(C)c(C)oc4c3[C@@H]12`, the IC50 with MDA-MB-231 is greater than 100 µM; in the test with SK-N-SH it was 10.8 µM; in the test with A549 it was 10.9 µM; with MRC5 it was 0.9 µM.

As to `Cc1oc2c3c(ccc2c(=O)c1-c1ccccc1)OC[C@H]1[C@@H]3C2=C(CC(C)(C)CC2=O)OC1(C)C`, the IC50 in the test with MDA-MB-231, in the test on SK-N-SH, with A549 and in the test on MRC5 was greater than 100 µM throughout.

As to `Cc1oc2c3c(ccc2c(=O)c1-c1ccccc1)OC[C@H]1[C@@H]3c2c(n(C)c(=O)n(C)c2=O)OC1(C)C`, the IC50 with MDA-MB-231 is greater than 100 µM; in the test with SK-N-SH it was 10.5 µM; with A549, greater than 100 µM; in the test with MRC5 it was greater than 100 µM.

On to `Cc1oc2c3c(ccc2c(=O)c1-c1ccccc1)OC[C@H]1[C@@H]3C2=C(CCCC2=O)OC1(C)C`, for which the IC50 in the test with MDA-MB-231, in the test on SK-N-SH, in the test on A549 and in the test on MRC5 was greater than 100 µM throughout.

Turning to `Cc1oc2c3c(ccc2c(=O)c1C)OC[C@H]1[C@@H]3c2c(c3ccccc3oc2=O)OC1(C)C`, the 50% inhibitory concentration (IC50) was greater than 100 µM with MDA-MB-231, 1.05 µM in the test with SK-N-SH, 0.1 µM in the test with A549 and 0.6 µM in the test with MRC5.

The record behind these values is ChEMBL document CHEMBL3217436, “Synthesis of new chromeno-annulated cis-fused pyrano[3,4-c]pyran derivatives via domino Knoevenagelhetero-DielsAlder reactions and their biological evaluation towards antiproliferative activity” (Medchemcomm, 2012).
